Measured values as given in ChEMBL document CHEMBL6127019, “Exploitation of the nitro- and/or 4-Trifluoromethyl-decorated phenyl fragment to develop small inhibitors of Alpha-Syn fibril aggregation” (Bioorg Med Chem Lett, 2024).
Calls of active or inactive are those of the source. The rule behind the calls is not given here.

target: Alpha-synuclein (Homo sapiens) (UniProt P37840); assay: Inhibition of alpha alpha-synuclein (unknown origin) fibril aggregation assessed as reduction in TH-T fluorescent signal at 100 uM measured after 5 to 40 hrs by ThT fluorescence assay relative to control; conditions: time 5-40 hrs

Structure (SMILES) | inhibition
O=[N+]([O-])c1cc(C(F)(F)F)cc([N+](=O)[O-])c1Nc1cccc(O)c1 | 68%
O=[N+]([O-])c1cc(C(F)(F)F)cc([N+](=O)[O-])c1F | 57%

target: Alpha-synuclein (Homo sapiens) (UniProt P37840); assay: Inhibition of alpha alpha-synuclein (unknown origin) fibril aggregation assessed as reduction in TH-T fluorescent signal at 100 uM measured after 5 to 40 hrs by ThT fluorescence assay; conditions: time 5-40 hrs

Structure (SMILES) | inhibition
O=C(COc1ccccc1)Nc1c([N+](=O)[O-])cc(C(F)(F)F)cc1[N+](=O)[O-] | inactive
O=[N+]([O-])c1cc(C(F)(F)F)cc([N+](=O)[O-])c1Nc1ccc(F)cc1 | inactive
O=[N+]([O-])c1cc(C(F)(F)F)cc([N+](=O)[O-])c1N1CCN(CCO)CC1 | inactive
O=C(O)CSCc1ccc(C(F)(F)F)cc1 | inactive
O=[N+]([O-])c1cc(C(F)(F)F)cc([N+](=O)[O-])c1NC1=NN(c2ccccc2)CC1 | inactive
Cn1nnnc1SCc1ccccc1[N+](=O)[O-] | inactive
N#Cc1c(C(F)(F)F)c([N+](=O)[O-])c(-c2cccc([N+](=O)[O-])c2)[nH]c1=O | Active
O=[N+]([O-])c1cc([N+](=O)[O-])c(Nc2ccccc2)c(C(F)(F)F)c1 | inactive
Cn1cnnc1SCc1ccc(C(F)(F)F)cc1 | inactive
O=[N+]([O-])c1cc(C(F)(F)F)cc([N+](=O)[O-])c1Sc1c(Cl)c(Cl)nc(Cl)c1Cl | inactive
Cc1cc(C)c(Nc2c([N+](=O)[O-])cc(C(F)(F)F)cc2[N+](=O)[O-])c(C)c1 | inactive
Cc1cc(C)nc(Sc2c([N+](=O)[O-])cc(C(F)(F)F)cc2[N+](=O)[O-])n1 | inactive
O=[N+]([O-])c1cc(C(F)(F)F)cc([N+](=O)[O-])c1NCCCO | inactive
Cn1nnnc1Sc1c([N+](=O)[O-])cc(C(F)(F)F)cc1[N+](=O)[O-] | Active
O=[N+]([O-])c1cc(C(F)(F)F)cc([N+](=O)[O-])c1N1CCN(c2ncnc3ccccc23)CC1 | inactive
Cn1nnnc1SCc1ccc(C(F)(F)F)cc1 | inactive
Cc1cccc(N2CCC(Nc3c([N+](=O)[O-])cc(C(F)(F)F)cc3[N+](=O)[O-])=N2)c1 | inactive
COc1cccc(Nc2c([N+](=O)[O-])cc(C(F)(F)F)cc2[N+](=O)[O-])c1 | inactive
